Consider three molecules from patent US20060035905A1, “Formulations of phosphodiesterase 5 inhibitors and methods of use” (Becton, Dickinson and Company, priority 2004, published 2006).

The nature of series [1]: in vivo. More on the design: species or system Sprague-Dawley rats. As to conditions: rat. As for the experimental part:
Animal surgery: The rat's femoral vein was cannulated for blood sampling for every group. For IN rats, an incision was made in the trachea and a polypropylene tube was inserted as an airway. To seal the pass way between the nasal cavity and trachea, a sealed tube was inserted through the same incision into the posterior of nasal cavity. Finally the nasopalatine was closed with an adhesive.
Blood samples were drawn from the femoral vein at predetermined time points.
20 μl of 12% perchloric acid was added to 80 μl rat serum followed by vortexing. Then 100 μl of water was added to achieve the sample volume required by HPLC assay.

The conditions of series [2]: for Clearance: dose normalized; for Bioavailability: versus IV mesylate.
Protocol: Intradermal injections were conducted at the flank region of Yucatan pigs using two different length of 31 gauge microneedles, 1.5 mm and 2.0 mm, noted as ID1.5 and ED 2.0, respectively. SC injections were conducted using regular half inch 30 gauge needles also at the flank region. […] After drug administration, blood samples were taken from the jugular vein port periodically and sera were collected after centrifugation and stored at −70° C. until analysis.
Pig serum samples (including pooled untreated serum) were briefly vortex-mixed and a 100 μl volume was transferred into a borosilicate glass screw-top conical test tube. 10 μl of the appropriate spiking solution was added to calibration and quality control (QC) samples. 10 μl of 50:50 methanol-water was added to study samples. […] The subsequent liquid/liquid extraction was performed by adding 2 ml of methyl t-butyl ether (MTBE) to each tube and vortex-mixing for 1 min, followed centrifugation at 3000 rpm for ˜10 min. Then the aqueous layer was frozen in dry-ice acetone bath and MTBE layer was decanted to glass tubes and dried in the TurboVap at 35° C. The samples were reconstituted in 200 μl acetonitrile containing 1% acetic acid and 0.025% TFA for LC-MS-MS analysis.
The standards and QCs for LC-MS-MS were made from a stock solution in MeOH-water 1:1, v/v. Calibration standard at concentrations of 10, 20, 500, 200, 500, 1000, 2500 and 5000 ng/ml. QCs were prepared at levels of 20, 2000, 4000 ng/ml. All standard and QCs were aliquoted and stored at 2-8° C. The LC-MS-MS system consisted of a Shimazu HPLC system (Kyoto, Japan) and a Sciex API 3000 tandem mass spectrometer (Ontario, Canada) with electrospray ionization in the positive ion mode [(+)-ESI]. The analytical column, Betasil silica of 5 μm, 50×3 mm I.D., was purchased from Keystone Scientific (Bellefonte, Pa., USA) and operated at 30° C. The mobile phase was a mixture of acetonitrile/water at 15/85 v/v and contains 1% acetic acid and 0.025% TFA. The injection volume was 30 μl. The run time was 3 min and the flow was 0.3 ml/min. The mass spectrometer was operated under multiple reaction monitoring mode with the ionspray needle maintained at 1.5 kV. The turbo gas temperature was 400° C. Nebulizing gas, curtain gas, and collision gas flows were at instrument settings of 8, 8, and 12, respectively. The declustering potential (DP), focusing potential (DP) and collision energy (CE) were at 65, 240, and 54 V, respectively.
Setting [3] is: IV, up to last sampling time point.

Read-outs that look alike come from different tables or passages of the source. Marks after values point to notes of the source that are not given here.

As a reminder, the Cmax is the maximum level reached in the sampled fluid or tissue. In general, MRT refers to a mean duration of stay, worked out from the concentration-time curve. As usually defined, the Tmax is the time at which the peak concentration occurs. As usually defined, the AUC is the area under the concentration-time curve, a measure of exposure. A lower AUC goes with low exposure.

In the case of `CCCc1nn(C)c2c(=O)[nH]c(-c3cc(S(=O)(=O)N4CCN(C)CC4)ccc3OCC)nc12` [sildenafil], in series [1] (Sprague-Dawley), the Cmax worked out at 547 ng/mL, the concentration at 5 min is 428 ng/mL, the “time of maximum systemic concentration” value is “around 15 min” and the “time of peak serum concentration” value is on record as “approximately 10 minutes”. For the same molecule, the Cmax in series [1] (Sprague-Dawley, Cmax) was around 1000 ng/mL. In series [1] (sc), the “maximum serum drug level (in words)” value was “comparable maximum serum drug level to the ID group” and the “time of Cmax” value is 30 to 60 min.
sildenafil acetate: in series [2] (ID 1.5 mm), the MRT turned out to be 1.85 h and the “Terminal t½” value was 2.19 h.
In the case of sildenafil mesylate, the MRT worked out at 1.90 h in series [2] (ID 1.5 mm), 2.27 h in series [2] (ID 2.0 mm), 1.90 h in series [2] (setting [3]) and 2.43 h in series [2] (SC). Further, the “Terminal t½” value in series [2] (ID 1.5 mm) was 2.27 h; in series [2] (ID 2.0 mm), 3.83 h; in series [2] (IV) it was 3.01 h; in series [2] (SC), 2.84 h. The Tmax in series [2] (ID 1.5 mm) is 0.083^c hr; in series [2] (ID 2.0 mm), 0.18 h; in series [2] (IV, ~5 mg sildenafil, average), 0.0^b hr; in series [2] (SC) it was 0.12 h. For the same molecule, the Clearance in series [2] (ID 1.5 mm) was 42.2835 mL/min/kg; in series [2] (ID 2.0 mm), 35.7202 mL/min/kg; in series [2] (IV), 23.558 mL/min/kg; in series [2] (SC), 45.6718 mL/min/kg. The exposure (AUC) turned out to be 116.21 ng·h/mL in series [2] (ID 1.5 mm, up to last sampling time point); 133.56 ng·h/mL in series [2] (ID 2.0 mm, up to last sampling time point); 229.41 ng·h/mL in series [2] (setting [3]); 120.13 ng·h/mL in series [2] (SC, up to last sampling time point). The Bioavailability in series [2] (ID 1.5 mm) is listed as 56.95^c %; in series [2] (ID 1.5 mm, listed as mesylate salt), around 55%; in series [2] (ID 2.0 mm) it was 66.79^c %; in series [2] (SC), 54.77^c %; in series [2] (SC, listed as mesylate salt), around 55%. Also, the peak concentration (Cmax) is 93.13 ng/mL in series [2] (ID 1.5 mm, ~5 mg sildenafil, average); 70.98 ng/mL in series [2] (ID 2.0 mm, ~5 mg sildenafil, average); 307.35 ng/mL in series [2] (IV, ~5 mg sildenafil, average); 111.28 ng/mL in series [2] (SC, ~5 mg sildenafil, average).
